What was measured:
[1] = biological target: HDAC6 human recombinant (Homo sapiens (Human), UniProt Q9UBN7); experiment: HDAC enzyme activity inhibition (in vitro), HDAC6 assay; type: biochemical; conditions: samples at 0.1, 1, 10, 100 and 1000 nM; 37° C. 60 minutes; fluorescence Ex 390, Em 460
[2] = biological target: HDAC1 (Homo sapiens (Human), UniProt Q13547); experiment: HDAC enzyme activity inhibition (in vitro), HDAC1 Fluorimetric Drug Discovery Assay Kit; type: biochemical; conditions: samples at 100, 1000 and 10000 nM; 37° C. 60 minutes; fluorescence Ex 390, Em 460
Sequence of HDAC1 (Q13547 whole entry): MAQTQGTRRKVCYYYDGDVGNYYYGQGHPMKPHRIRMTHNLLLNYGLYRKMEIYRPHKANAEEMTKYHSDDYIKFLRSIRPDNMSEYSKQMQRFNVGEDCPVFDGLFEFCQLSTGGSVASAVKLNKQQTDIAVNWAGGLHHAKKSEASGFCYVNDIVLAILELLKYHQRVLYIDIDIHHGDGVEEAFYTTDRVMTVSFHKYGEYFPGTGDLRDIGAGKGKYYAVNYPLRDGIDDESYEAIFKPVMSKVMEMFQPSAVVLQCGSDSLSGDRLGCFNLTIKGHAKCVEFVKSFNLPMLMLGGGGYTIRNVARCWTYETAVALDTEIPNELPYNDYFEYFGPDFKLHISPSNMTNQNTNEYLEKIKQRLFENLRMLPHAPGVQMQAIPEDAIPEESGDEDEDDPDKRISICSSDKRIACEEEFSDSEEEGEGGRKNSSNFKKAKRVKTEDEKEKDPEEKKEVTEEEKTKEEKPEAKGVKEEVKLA

Sequence of HDAC6 human recombinant (Q9UBN7 whole entry): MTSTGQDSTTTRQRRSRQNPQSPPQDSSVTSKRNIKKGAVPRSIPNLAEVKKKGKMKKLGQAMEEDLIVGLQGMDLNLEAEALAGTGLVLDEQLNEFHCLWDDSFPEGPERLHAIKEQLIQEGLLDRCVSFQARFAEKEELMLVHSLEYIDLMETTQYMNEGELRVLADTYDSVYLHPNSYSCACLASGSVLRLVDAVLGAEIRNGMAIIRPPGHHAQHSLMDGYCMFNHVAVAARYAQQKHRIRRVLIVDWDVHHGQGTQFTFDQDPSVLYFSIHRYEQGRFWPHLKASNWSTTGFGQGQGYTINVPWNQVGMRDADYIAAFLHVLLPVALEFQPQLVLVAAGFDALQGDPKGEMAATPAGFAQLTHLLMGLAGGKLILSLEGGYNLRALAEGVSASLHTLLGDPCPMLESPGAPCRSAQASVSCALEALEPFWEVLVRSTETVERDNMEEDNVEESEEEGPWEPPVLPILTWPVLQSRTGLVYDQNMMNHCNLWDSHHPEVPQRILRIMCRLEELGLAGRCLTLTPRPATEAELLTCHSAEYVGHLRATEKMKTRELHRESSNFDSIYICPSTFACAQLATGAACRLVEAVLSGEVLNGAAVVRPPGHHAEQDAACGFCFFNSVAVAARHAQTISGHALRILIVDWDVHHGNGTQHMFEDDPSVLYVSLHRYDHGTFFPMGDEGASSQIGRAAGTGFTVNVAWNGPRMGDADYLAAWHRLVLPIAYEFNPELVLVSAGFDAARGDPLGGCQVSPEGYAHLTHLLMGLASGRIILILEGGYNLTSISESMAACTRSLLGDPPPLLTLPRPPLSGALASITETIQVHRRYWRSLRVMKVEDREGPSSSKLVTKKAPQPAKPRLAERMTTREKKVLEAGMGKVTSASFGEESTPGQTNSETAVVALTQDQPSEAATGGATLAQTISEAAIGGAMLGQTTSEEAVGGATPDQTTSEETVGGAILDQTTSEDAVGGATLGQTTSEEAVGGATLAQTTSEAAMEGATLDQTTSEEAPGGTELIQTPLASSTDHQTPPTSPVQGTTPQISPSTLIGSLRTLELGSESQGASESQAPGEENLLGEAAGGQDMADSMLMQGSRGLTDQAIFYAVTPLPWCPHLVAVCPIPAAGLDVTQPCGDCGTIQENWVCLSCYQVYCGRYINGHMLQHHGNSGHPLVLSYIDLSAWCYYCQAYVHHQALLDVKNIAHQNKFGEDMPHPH

Compound	IC50 [1]	IC50 [2]
CC(C)N1CCC(c2ccc3c(c2)C(C)(C)C(=O)N(Cc2ccc(-c4nnc(C(F)F)o4)cn2)C3=O)CC1 [Compound 60, 2-((5-(5-(difluoromethyl)-1,3,4-oxadiazole-2-yl)pyridine-2-yl)methyl)-6-(1-isopropylpiperidine-4-yl)-4,4-dimethylisoquinoline-1,3(2H,4H)-dione]	22 nM	> 10000 nM
CC1(C)C(=O)N(Cc2ccc(-c3nnc(C(F)F)o3)cn2)C(=O)c2cc(C3CCN(CC(F)(F)F)CC3)ccc21 [Compound 135, 2-((5-(5-(difluoromethyl)-1,3,4-oxadiazole-2-yl)pyridine-2-yl)methyl)-4,4-dimethyl-7-(1-(2,2,2-trifluoroethyl)piperidine-4-yl)isoquinoline-1,3(2H,4H)-dione]	100 nM	> 10000 nM
CC1(C)C(=O)N(Cc2ccc(-c3nnc(C(F)F)o3)cn2)C(=O)c2ccc(N3CCN(C4CCC(F)(F)CC4)CC3)cc21 [Compound 150, 6-(4-(4,4-difluorocyclohexyl)piperazine-1-yl)-2-((5-(5-(difluoromethyl)-1,3,4-oxadiazole-2-yl)pyridine-2-yl)methyl)-4,4-dimethylisoquinoline-1,3(2H,4H)-dione]	51 nM	> 10000 nM
CC1(C)C(=O)N(Cc2ccc(-c3nnc(C(F)F)o3)cn2)C(=O)c2ccc(C3CCN(C4CC5(COC5)C4)CC3)cc21 [Compound 63, 6-(1-(2-oxaspiro[3.3]heptane-6-yl)piperidine-4-yl)-2-((5-(5-(difluoromethyl)-1,3,4-oxadiazole-2-yl)pyridine-2-yl)methyl)-4,4-dimethylisoquinoline-1,3(2H,4H)-dione]	33 nM	> 10000 nM
CC1(C)C(=O)N(Cc2ccc(-c3nnc(C(F)F)o3)cn2)C(=O)c2cc(C3=CCS(=O)(=NC(=O)C(F)(F)F)CC3)ccc21 (stereo not drawn) [Compound 125, N-(4-(2-((5-(5-(difluoromethyl)-1,3,4-oxadiazole-2-yl)pyridine-2-yl)methyl)-4,4-dimethyl-1,3-dioxo-1,2,3,4-tetrahydroisoquinoline-7-yl)-1-oxydo-3,6-dihydro-2H-1λ^6-thiopyran-1-ylidene)-2,2,2-trifluoroacetamide]	43 nM	> 10000 nM
Cn1c(=O)n(Cc2ccc(-c3nnc(C(F)F)o3)cn2)c(=O)c2cc(-c3ccco3)ccc21 [Compound 87, 3-((5-(5-(difluoromethyl)-1,3,4-oxadiazole-2-yl)pyridine-2-yl)methyl)-6-(furan-2-yl)-1-methylquinazoline-2,4(1H,3H)-dione]	23 nM	> 10000 nM
O=c1[nH]c2ccccc2c(=O)n1Cc1ccc(-c2nnc(C(F)F)o2)cn1 [Compound 14, 3-((5-(5-(difluoromethyl)-1,3,4-oxadiazole-2-yl)pyridine-2-yl)methyl)quinazoline-2,4(1H,3H)-dione]	53 nM	> 10000 nM
CC1(C)C(=O)N(Cc2ccc(-c3nnc(C(F)F)o3)cn2)C(=O)c2cc(-c3ccoc3)ccc21 [Compound 112, 2-((5-(5-(difluoromethyl)-1,3,4-oxadiazole-2-yl)pyridine-2-yl)methyl)-7-(furan-3-yl)-4,4-dimethylisoquinoline-1,3(2H,4H)-dione]	50 nM	> 10000 nM
CC1(C)C(=O)N(Cc2ccc(-c3nnc(C(F)F)o3)cn2)C(=O)c2ccc(N3CCN(CC4CCCCC4)CC3)cc21 [Compound 48, 6-(4-(cyclohexylmethyl)piperazine-1-yl)-2-((5-(5-(difluoromethyl)-1,3,4-oxadiazole-2-yl)pyridine-2-yl)methyl)-4,4-dimethylisoquinoline-1,3(2H,4H)-dione]	342 nM	> 10000 nM
CC1(C)C(=O)N(Cc2ncc(-c3nnc(C(F)F)o3)cn2)C(=O)c2ccc(Br)cc21 [Compound 152, 6-bromo-2-((5-(5-(difluoromethyl)-1,3,4-oxadiazole-2-yl)pyrimidine-2-yl)methyl)-4,4-dimethylisoquinoline-1,3(2H,4H)-dione]	125 nM	> 10000 nM
Cn1c(=O)n(Cc2ccc(-c3nnc(C(F)F)o3)cn2)c(=O)c2ccc(-c3cccnc3)cc21 [Compound 100, 3-((5-(5-(difluoromethyl)-1,3,4-oxadiazole-2-yl)pyridine-2-yl)methyl)-1-methyl-7-(pyridine-3-yl)quinazoline-2,4(1H,3H)-dione]	37 nM	> 10000 nM
CN(C)[C@@H]1CCN(c2ccc3c(c2)C(C)(C)C(=O)N(Cc2ccc(-c4nnc(C(F)F)o4)cn2)C3=O)C1 [Compound 32, (R)-2-((5-(5-(difluoromethyl)-1,3,4-oxadiazole-2-yl)pyridine-2-yl)methyl)-6-(3-(dimethylamino)pyrrolidine-1-yl)-4,4-dimethylisoquinoline-1,3(2H,4H)-dione]	25 nM	> 10000 nM
CC1(C)C(=O)N(Cc2ccc(-c3nnc(C(F)F)o3)cn2)C(=O)c2ccc(Br)cc21 [Compound 23, 6-bromo-2-((5-(5-(difluoromethyl)-1,3,4-oxadiazole-2-yl)pyridine-2-yl)methyl)-4,4-dimethylisoquinoline-1,3(2H,4H)-dione]	65 nM	> 10000 nM
CC(C)(C)OC(=O)N1CCN(c2ccc3c(c2)C(C)(C)C(=O)N(Cc2ccc(-c4nnc(C(F)F)o4)cn2)C3=O)CC12CC2 [Compound 79, tert-butyl 7-(2-((5-(5-(difluoromethyl)-1,3,4-oxadiazole-2-yl)pyridine-2-yl)methyl)-4,4-dimethyl-1,3-dioxo-1,2,3,4-tetrahydroisoquinoline-6-yl)-4,7-diazaspiro[2.5]octane-4-carboxylate]	113 nM	> 10000 nM

Further lines, results first:

IC50 [1]	IC50 [2]	Compound
30 nM	> 10000 nM	CC1(C)C(=O)N(Cc2ccc(-c3nnc(C(F)F)o3)cn2)C(=O)c2ccccc21 [Compound 8, 2-((5-(5-(difluoromethyl)-1,3,4-oxadiazole-2-yl)pyridine-2-yl)methyl)-4,4-dimethylisoquinoline-1,3(2H,4H)-dione]
196 nM	> 10000 nM	CN1CCC(Cn2c(=O)n(Cc3ccc(-c4nnc(C(F)F)o4)cn3)c(=O)c3ccccc32)CC1 [Compound 15, 3-((5-(5-(difluoromethyl)-1,3,4-oxadiazole-2-yl)pyridine-2-yl)methyl)-1-((1-methylpiperidine-4-yl)methyl)quinazoline-2,4(1H,3H)-dione]
17 nM	> 10000 nM	CC1(C)C(=O)N(Cc2ccc(-c3nnc(C(F)F)o3)cn2)C(=O)c2cc(-c3cccnc3)ccc21 [Compound 111, 2-((5-(5-(difluoromethyl)-1,3,4-oxadiazole-2-yl)pyridine-2-yl)methyl)-4,4-dimethyl-7-(pyridine-3-yl)isoquinoline-1,3(2H,4H)-dione]
49 nM	> 10000 nM	CC1(C)C(=O)N(Cc2ccc(-c3nnc(C(F)F)o3)cn2)C(=O)c2ccc(-c3ccco3)cc21 [Compound 74, 2-((5-(5-(difluoromethyl)-1,3,4-oxadiazole-2-yl)pyridine-2-yl)methyl)-6-(furan-2-yl)-4,4-dimethylisoquinoline-1,3(2H,4H)-dione]
561 nM	> 10000 nM	O=C1c2ccccc2C(=O)N1Cc1ccc(-c2nnc(C(F)F)o2)cc1F [Compound 2, 2-(4-(5-(difluoromethyl)-1,3,4-oxadiazole-2-yl)-2-fluorobenzyl)isoindoline-1,3-dione]
59 nM	> 10000 nM	Cn1c(=O)n(Cc2ccc(-c3nnc(C(F)F)o3)cn2)c(=O)c2cc(F)ccc21 [Compound 70, 3-((5-(5-(difluoromethyl)-1,3,4-oxadiazole-2-yl)pyridine-2-yl)methyl)-6-fluoro-1-methylquinazoline-2,4(1H,3H)-dione]
49 nM	> 10000 nM	CC1(C)C(=O)N(Cc2ccc(-c3nnc(C(F)F)o3)cn2)C(=O)c2ccc(N3CCN(C4CC4)CC3)cc21 [Compound 47, 6-(4-cyclopropylpiperazine-1-yl)-2-((5-(5-(difluoromethyl)-1,3,4-oxadiazole-2-yl)pyridine-2-yl)methyl)-4,4-dimethylisoquinoline-1,3(2H,4H)-dione]
211 nM	> 10000 nM	CC1(C)C(=O)N(Cc2ccc(-c3nnc(C(F)F)o3)cn2)C(=O)c2cc(-c3cccc(F)c3)ccc21 [Compound 108, 2-((5-(5-(difluoromethyl)-1,3,4-oxadiazole-2-yl)pyridine-2-yl)methyl)-7-(3-fluorophenyl)-4,4-dimethylisoquinoline-1,3(2H,4H)-dione]
32 nM	> 10000 nM	CCCN1CCN(c2ccc3c(c2)C(C)(C)C(=O)N(Cc2ccc(-c4nnc(C(F)F)o4)cn2)C3=O)CC1 [Compound 148]
35 nM	> 10000 nM	Cn1c(=O)n(Cc2ccc(-c3nnc(C(F)F)o3)cn2)c(=O)c2cc(-c3ccncc3)ccc21 [Compound 92, 3-((5-(5-(difluoromethyl)-1,3,4-oxadiazole-2-yl)pyridine-2-yl)methyl)-1-methyl-6-(pyridine-4-yl)quinazoline-2,4(1H,3H)-dione]
17 nM	> 10000 nM	CC(=O)N1CCC(c2ccc3c(c2)C(=O)N(Cc2ccc(-c4nnc(C(F)F)o4)cn2)C(=O)C3(C)C)CC1 [Compound 127, 7-(1-acetylpiperidine-4-yl)-2-((5-(5-(difluoromethyl)-1,3,4-oxadiazole-2-yl)pyridine-2-yl)methyl)-4,4-dimethylisoquinoline-1,3(2H,4H)-dione]
10 nM	> 10000 nM	CC1(C)C(=O)N(Cc2ccc(-c3nnc(C(F)F)o3)cn2)C(=O)c2ccc(-c3ccncc3)cc21 [Compound 105, 2-((5-(5-(difluoromethyl)-1,3,4-oxadiazole-2-yl)pyridine-2-yl)methyl)-4,4-dimethyl-6-(pyridine-4-yl)isoquinoline-1,3(2H,4H)-dione]
61 nM	> 10000 nM	Cn1c(=O)n(Cc2ccc(-c3nnc(C(F)F)o3)cn2)c(=O)c2ccc(Br)cc21 [Compound 97, 7-bromo-3-((5-(5-(difluoromethyl)-1,3,4-oxadiazole-2-yl)pyridine-2-yl)methyl)-1-methylquinazoline-2,4(1H,3H)-dione]

— patent US12440484B2, “1,3,4-oxadiazole homophthalimide derivative compounds as histone deacetylase 6 inhibitor, and the pharmaceutical composition comprising the same” (Chong Kun Dang Pharmaceutical Corp., priority 2019, dated 2025)
